Reference: patent US11155517B2, “4-substituted phenylamine derivatives and their use to protect crops by fighting undesired phytopathogenic micoorganisms” (PI INDUSTRIES LTD., priority 2016, dated 2021)

How the values were obtained:
Assay type in all cases: cell-based
Botrytis cinerea = Botrytis cinerea (gray mold) in vitro test, radial growth on Potato Dextrose Agar; conditions: 168 h, 300 ppm, seven days, 22° C., read-out: % (control) compared to the untreated check (radial growth)
Rhizoctonia solani = Rhizoctonia solani (rice sheath blight/potato black scurf) in vitro test, radial growth on Potato Dextrose Agar; conditions: 168 h, 300 ppm, seven days, 25° C., read-out: % control compared to the untreated check (radial growth)
Pyricularia oryzae = test: microbe, parasite or virus in culture; conditions: 168 h, read-out: % control compared to the untreated check (radial growth)
Alternaria solani = Alternaria solani (early blight of tomato/potato) in vitro test, radial growth on Potato Dextrose Agar; conditions: 168 h, 300 ppm, seven days, 25° C., read-out: % control compared to the untreated check (radial growth)
Colletotrichum capsici = Colletotrichum capsici (anthracnose) in vitro test, radial growth on Potato Dextrose Agar; conditions: Colletotrichum truncatum, 168 h; 300 ppm; seven days, 25° C.; read-out: % control compared to the untreated check (radial growth)
Fusarium culmorum = Fusarium culmorum (foot rot of cereals) in vitro test, radial growth on Potato Dextrose Agar; conditions: Fusarium culmorum, 168 h, read-out: % control compared to the untreated check (radial growth)
Septoria lycopersici = Septoria lycopersici (leaf spot of tomato) in vitro test, radial growth on Potato Dextrose Agar; conditions: 168 h, seven days, 25° C., read-out: % control compared to the untreated check (radial growth)

Row | SMILES | inhibition of growth at 300 ppm (Botrytis cinerea) [%] | inhibition of growth at 300 ppm (Rhizoctonia solani) [%] | inhibition of growth at 300 ppm (Pyricularia oryzae) [%] | inhibition of growth at 300 ppm (Alternaria solani) [%] | inhibition of growth at 300 ppm (Colletotrichum capsici) [%] | inhibition of growth at 300 ppm (Fusarium culmorum) [%] | inhibition of growth at 300 ppm (Septoria lycopersici) [%]
1 | CCN(C)C=Nc1cc(C)c(Cc2ccc(OC)cc2)cc1C [Compound 54, N-ethyl-N′-(4-(4-methoxybenzyl)-2,5-dimethylphenyl)-N-methylformimidamide] | > 80 | > 80 | > 75 | > 75 | > 80 | 75 | > 70
2 | CCN(C)C=Nc1cc(C(F)(F)F)c(Cc2ccccc2Cl)cc1C1CC1 [Compound 262, N′-(4-(2-chlorobenzyl)-2-cyclopropyl-5-(trifluoromethyl)phenyl)-N-ethyl-N-methylformimidamide] | > 80 | > 80 | > 75 | > 75 | > 80 | 75 | > 70
3 | CCN(C)C=Nc1cc(Cl)c(Cc2cccc(F)c2)cc1C [Compound 259, N′-(5-chloro-4-(3-fluorobenzyl)-2-methylphenyl)-N-ethyl-N-methylformimidamide] | > 80 | > 80 | > 75 | > 75 | > 80 | 75 | > 70
4 | CCN(C)C=Nc1cc(C(F)(F)F)c(Cc2cccc(C)c2)cc1C1CC1 [Compound 263, N′-(2-cyclopropyl-4-(3-methylbenzyl)-5-(trifluoromethyl)phenyl)-N-ethyl-N-methylformimidamide] | > 80 | > 80 | > 75 | > 75 | > 80 | 75 | > 70
5 | C=CCN(C)C=Nc1cc(C)c(Cc2ccccc2Cl)cc1C [Compound 84, N-allyl-N′-(4-(2-chlorobenzyl)-2,5-dimethylphenyl)-N-methylformimidamide] | > 80 | > 80 | > 75 | > 75 | > 80 | 75 | > 70
6 | CCN(C)C=Nc1cc(C)c(Cc2cccc(F)c2)cc1C1CC1 [Compound 197, N′-(2-cyclopropyl-4-(3-fluorobenzyl)-5-methylphenyl)-N-ethyl-N-methylformimidamide] | > 80 | > 80 | > 75 | > 75 | > 80 | 75 | > 70
7 | CCN(C)C=Nc1cc(C)c(Cc2cc(C)cc(C)c2)cc1C [Compound 114, N′-(4-(3,5-dimethylbenzyl)-2,5-dimethylphenyl)-N-ethyl-N-methylformimidamide] | > 80 | > 80 | > 75 | > 75 | > 80 | 75 | > 70
8 | CCN(C)C=Nc1cc(C)c(Cc2cc(C)cc(F)c2)cc1C [Compound 200, N-ethyl-N′-(4-(3-fluoro-5-methylbenzyl)-2,5-dimethylphenyl)-N-methylformimidamide] | > 80 | > 80 | > 75 | > 75 | > 80 | 75 | > 70
9 | CCN(C)C=Nc1cc(C)c(Cc2cc(F)ccc2C)cc1Cl [Compound 165, N′-(2-chloro-4-(5-fluoro-2-methylbenzyl)-5-methylphenyl)-N-ethyl-N-methylformimidamide] | > 80 | > 80 | > 75 | > 75 | > 80 | 75 | > 70
10 | CCN(C)C=Nc1cc(F)c(Cc2cccc(Cl)c2)cc1C [Compound 173, N′-(4-(3-chlorobenzyl)-5-fluoro-2-methylphenyl)-N-ethyl-N-methylformimidamide] | > 80 | > 80 | > 75 | > 75 | > 80 | 75 | > 70
11 | CCN(C)C=Nc1cc(C)c(Cc2cccc(Cl)c2F)cc1C [Compound 118, N′-(4-(3-chloro-2-fluorobenzyl)-2,5-dimethylphenyl)-N-ethyl-N-methylformimidamide] | > 80 | > 80 | > 75 | > 75 | > 80 | 75 | > 70
12 | CCN(C)C=Nc1cc(C)c(Cc2ccccc2F)cc1C1CC1 [Compound 221, N′-(2-cyclopropyl-4-(2-fluorobenzyl)-5-methylphenyl)-N-ethyl-N-methylformimidamide] | > 80 | > 80 | > 75 | > 75 | > 80 | 75 | > 70
13 | CCN(C)C=Nc1cc(C)c(Cc2ccc(F)cc2C)cc1Cl [Compound 167, N′-(2-chloro-4-(4-fluoro-2-methylbenzyl)-5-methylphenyl)-N-ethyl-N-methylformimidamide] | > 80 | > 80 | > 75 | > 75 | > 80 | 75 | > 70
14 | Cc1cc(N=CNC(C)C)c(C)cc1Cc1ccccc1F [Compound 66, N′-(4-(2-fluorobenzyl)-2,5-dimethylphenyl)-N-isopropylformimidamide] | > 80 | > 80 | > 75 | > 75 | > 80 | 75 | > 70
15 | CCN(C)C=Nc1cc(C(F)(F)F)c(Cc2ccc(C)cc2)cc1F [Compound 225, N-ethyl-N′-(2-fluoro-4-(4-methylbenzyl)-5-(trifluoromethyl)phenyl)-N-methylformimidamide] | > 80 | > 80 | > 75 | > 75 | > 80 | 75 | > 70
16 | CCN(C)C=Nc1cc(C)c(Cc2ccc(F)c(F)c2)cc1C [Compound 146, N′-(4-(3,4-difluorobenzyl)-2,5-dimethylphenyl)-N-ethyl-N-methylformimidamide] | > 80 | > 80 | > 75 | > 75 | > 80 | 75 | > 70
17 | CCN(C)C=Nc1cc(F)c(Cc2cccc(C)c2)cc1C [Compound 171, N-ethyl-N′-(5-fluoro-2-methyl-4-(3-methylbenzyl)phenyl)-N-methylformimidamide] | > 80 | > 80 | > 75 | > 75 | > 80 | 75 | > 70
18 | CCN(C)C=Nc1cc(C)c(Cc2ccc(C)c(C)c2)cc1C [Compound 113, N′-(4-(3,4-dimethylbenzyl)-2,5-dimethylphenyl)-N-ethyl-N-methylformimidamide] | > 80 | > 80 | > 75 | > 75 | > 80 | 75 | > 70
19 | CCN(C)C=Nc1cc(C)c(Cc2ccc(Cl)c(C)c2)cc1C [Compound 108, N′-(4-(4-chloro-3-methylbenzyl)-2,5-dimethylphenyl)-N-ethyl-N-methylformimidamide] | > 80 | > 80 | > 75 | > 75 | > 80 | 75 | > 70
20 | CCN(C)C=Nc1cc(C)c(Cc2cccc(C)c2)cc1F [Compound 210, N-ethyl-N′-(2-fluoro-5-methyl-4-(3-methylbenzyl)phenyl)-N-methylformimidamide] | > 80 | > 80 | > 75 | > 75 | > 80 | 75 | > 70
21 | Cc1cc(N=CN2CCCCC2)c(C)cc1Cc1ccccc1F [Compound 58, N-(4-(2-fluorobenzyl)-2,5-dimethylphenyl)-1-(piperidin-1-yl)methanimine] | > 80 | > 80 | > 75 | > 75 | > 80 | 75 | > 70
